Assays:
[1] = tested on: J82 bladder cancer cells; assay: Capture of cultured J82 tumor cells from urine with biotinylated cell binding peptide on streptavidin magnetic beads; assay type: cell-based, human; conditions: for J82 bladder tumor cells: cells captured on peptide-magnetic bead conjugate from 5 ml human urine, leukocyte:J82 mixture 12.5:1 to 20:1, unit not given; for Enrichment Factor: ratio J82:total leukocytes after capture divided by ratio before capture, urine
Procedure: (§1) A green fluorescent leukocyte preparation was prepared as follows. Red blood cells in 2 ml anti-coagulated human blood were lysed by the addition of 30 ml of a hypotonic medium and incubation for 10 min at room temperature. Intact cells and debris were recovered by centrifugation at 300×g. Pelleted material was resuspended with PBS/0.5% BSA/2 mM EDTA and filtered through a 100 micron nylon filter. Leukocytes (3×10^6) were labeled with 5 μM Cell Tracker Green CMFDA (LIFE TECHNOLOGIES/MOLECULAR PROBES) in EMEM growth medium without serum for 45 min. Excess dye was removed by centrifugation at 500×g for 5 min and washing with PBS/0.5% BSA/2 mM EDTA and cells were exposed to 10% serum containing medium for 45 min to allow dye conversion.
Red fluorescent J82 cells were prepared as follows: An 80% confluent culture of J82 bladder cancer cells was labeled with 5 μM Cell Tracker Red CMPTX (LIFE SCIENCES/MOLECULAR PROBES) in EMEM growth medium without serum for 90 min. Excess dye was removed by washing the flask with EMEM/10% FBS and cells were exposed to 10% serum containing medium for 1.5 h for dye conversion. The cells were then washed with PBS and released from the flask with 0.05% trypsin. Cells were recovered and trypsin removed by centrifugation at 500×g followed by washing in PBS/0.5% BSA/2 mM EDTA.
Biotinylated peptides SEQ ID NO: 1 and SEQ ID NO: 10 were synthesized with a C-terminal Peg10 group attached to a lysine as described in Example 1. The biotinylated peptides were conjugated to magnetic microbeads (MILTENYI) by incubating 400 μl of bead suspension in 20 μM peptide for 30 min on ice with occasional mixing. Unbound peptide was removed by binding the beads to a Miltenyi MS column placed in a magnetic field. Beads were washed with PBS/0.5% BSA/2 mM EDTA and peptide conjugated beads released by removing the Miltenyi MS column from the magnetic field. A mixture of green fluorescent leukocytes and red fluorescent J82 bladder cancer cells was variously prepared in ratios between 12.5:1 and 20:1. The cell mixture (725,000 cells total) was added to 5 ml human urine and then 250 μl of peptide-magnetic bead conjugate. The whole was incubated for 45 min at room temperature with rotation.
To capture cells the peptide-magnetic bead cell mixture was passed over a Miltenyi MS column pre-equilibrated with PBS/0.5% BSA/2 mM EDTA and held in a magnetic field. Unbound cells were washed out with PBS/0.5% BSA/2 mM EDTA and retained. Cells bound to the peptide-magnetic bead conjugate were released from the Miltenyi MS column by removing the column from the magnetic field. […] The data in FIG. 3 and Table 2 below show a 463-fold to 588-fold enrichment of J82 cells from leukocytes in urine. […]

[2] = tested on: blood leukocytes; assay: Capture of leukocytes from urine with biotinylated cell binding peptide on streptavidin magnetic beads (same test, obscuring cells); assay type: cell-based; conditions: cells captured on peptide-magnetic bead conjugate from 5 ml human urine; leukocyte:J82 mixture 12.5:1 to 20:1; unit not given
Procedure: as §1
Red fluorescent J82 cells were prepared as follows: An 80% confluent culture of J82 bladder cancer cells was labeled with 5 μM Cell Tracker Red CMPTX (LIFE SCIENCES/MOLECULAR PROBES) in EMEM growth medium without serum for 90 min. Excess dye was removed by washing the flask with EMEM/10% FBS and cells were exposed to 10% serum containing medium for 1.5 h for dye conversion. The cells were then washed with PBS and released from the flask with 0.05% trypsin. Cells were recovered and trypsin removed by centrifugation at 500×g followed by washing in PBS/0.5% BSA/2 mM EDTA. […]

[3] = tested on: J82 urothelial cancer cells; assay: Selective capture of J82 urothelial cells from a mixture of J82 and white blood cells on peptide coated glass slide; assay type: cell-based, human
Procedure: (§2) Peptides were synthesized in a conjugatable format for unidirectional conjugation to glass. Peptides were attached to glass through a covalent bond formed between the lysine on C-terminus of the peptide and an N-Hydroxysuccinimide (NHS) group on the glass. Briefly, microscope glass slides functionalized with NHS groups ((MICROSURFACES, Inc)) were incubated with peptide solution at 200 μM for 2 hours at 30° C., ˜75% RH. At the end of the incubation the slides were washed 3 times for 5 min in washing buffer (1×PBS, 0.05% Tween 20) and subsequently deactivated in deactivation solution (MICROSURFACES, Inc) for 30 min at 30° C., ˜75% RH to deactivate any remaining uncoupled NHS groups. Eventually slides were washed twice for 5 min in washing buffer prior to being blocked for 1 hour in blocking buffer (PBS, 0.5% BSA, 2 mM EDTA).
(§3) Microscope glass slides with discrete areas functionalized with peptide were used as diagnostic cell capture devices as shown in FIG. 1. Cells used were cultured cell lines established from human transitional bladder carcinomas (J82, ATCC HTB-1 and T24, ATCC HTB-4), cells isolated from voided urine of healthy donors (primary cells), a cultured cell line established from human thyroid carcinoma (SW579) or white blood cells (WBC) obtained from human whole blood by lysing red blood cells.
(§4) Cell suspension was prepared in cell capture buffer (PBS, 0.5% BSA, 2 mM EDTA, 0-200 mM glucose) and applied directly to a peptide functionalized slide in which peptide was attached to a glass slide using the N-Hydroxysuccinimide chemistry described in Example 4 with a pipetting device. The cells were incubated on the slide for 15 min and then drained by tipping the slide to the side. The slides were washed by dipping in wash buffer (PBS, 0.5% BSA, 2 mM EDTA) to wash away unbound cells. Slides were fixed in paraformaldehyde, dried, stained (H&E) and cover slipped for microscopic examination in a bright field. For fluorescent microscopy the cells were labeled with fluorescent dyes (CELLTRACKER Green or Red; LIFE TECHNOLOGIES, INC) prior to applying to the slide. Following the 15 min incubation the slides were washed, fixed, dried and mounted with a fluorescent mounting medium for microscopic examination in a dark field.
(§5) Selective capture of urothelial cells, J82, was achieved from a mixture of J82 and white blood cells (WBC) on a peptide coated glass slide using cell binding peptides of the present disclosure. In this Example, peptides were synthesized with a C-terminal Peg10 spacer followed by a lysine and conjugated to the glass slide according to Example 4.
The cell binding peptides used in a first experiment were SEQ ID NO: 1, SEQ ID NO: 2, SEQ ID NO: 3, and SEQ ID NO: 4. […] Human WBC and J82 cells were labeled with different CELLTRACKER dyes, mixed at a 1 to 1 ratio and applied to a slide with discrete areas coated with peptides. The slide was washed of unbound cells and captured cells were counted under a fluorescent microscope. Data are presented in FIGS. 5A & 5B as cell number per microscope field at 100× magnification averaged from 10 fields. The slide area not coated with peptide was used as a negative control. Preferential capture of J82 urothelial cells was observed leading to depletion of WBC up to 85%. […] Thus the degree of WBC removal from the diagnostic sample can be controlled by using a peptide most suitable for the application. For example, in some circumstances the presence of some WBCs on the slide may provide valuable clinical information.
In another experiment, selective capture of urothelial cancer cells, J82, was achieved from a mixture of J82 and WBC on a peptide coated glass slide using peptides SEQ ID NO: 5, SEQ ID NO: 6, and SEQ ID NO: 7. […] Human WBC and J82 cells were labeled with different CELLTRACKER dyes, mixed at 7 to 1 ratio and applied to a slide with discrete areas coated with peptides. The slide was washed of unbound cells and captured cells were counted under a fluorescent microscope. […]

[4] = tested on: SW579 thyroid cancer cells; assay: Selective capture of SW579 thyroid cells from a mixture of SW579 and WBC on peptide coated glass slide; assay type: cell-based, human; conditions: WBC:SW579 1 to 1; compared with SEQ ID NO: 4 and SEQ ID NO: 1
Procedure: as §2
Microscope glass slides with discrete areas functionalized with peptide were used as diagnostic cell capture devices as shown in FIG. 1. […]
In a first experiment peptides SEQ ID NO: 1, SEQ ID NO: 2, SEQ ID NO: 3 and SEQ ID NO: 4 were tested and peptide SEQ ID NO: 10 was used as a positive control. […] The slide was washed of unbound cells and captured cells were counted under a fluorescent microscope. […]

[5] = tested on: thyroid cancer cells; assay: Selective capture of thyroid cancer cells spiked with whole blood on peptide coated slide; assay type: cell-based, human; conditions: H&E staining, 200x
Procedure: as §3
as §4, with “Following the 15 min incubation the slides were washed, fixed, dried and mounted with a fluorescent mounting medium for microscopic examination in a dark field.” left out

[6] = tested on: primary cells from voided urine; assay: Capture of primary cells from voided urine on peptide coated glass slide; assay type: cell-based, human; conditions: for Number of captured basal and intermediate cells/peptide coated area / Number of captured superficial and squamous cells/peptide coated area: cells from 40 mL voided urine, entire peptide coated area 2.67 cm^2, H&E, bright field; for peptide selectivity: preferential capture of cell type: primary cells from voided urine
Procedure: as §2, §3, §4, §5
In another experiment, primary cells from voided urine were selectively captured onto peptide coated glass slides. Specifically, cells were isolated from 40 mL of voided urine from a second morning void and applied to a glass slide with a discrete area coated with peptide. Cells were visualized by H&E staining and counted in a bright field. Results are presented in Table 3 below as a cell number per the entire peptide coated area (2.67 cm^2). […] The sample adequacy criterion for urine cytology is at least 15 well visualized basal or intermediate cells^1.

[7] = tested on: J82 urothelial cancer cells; assay: Selective capture of J82 urothelial cancer cells from voided urine spiked with whole blood on peptide coated slide; assay type: cell-based, human; conditions: voided urine spiked with whole blood and J82 cells; H&E staining, 100x
Procedure: as §3
as §4, with “The” for “Cell suspension was prepared in cell capture buffer (PBS, 0.5% BSA, 2 mM EDTA, 0-200 mM glucose) and applied directly to a peptide functionalized slide in which peptide was attached to a glass slide using the N-Hydroxysuccinimide chemistry described in Example 4 with a pipetting device. The”
In this Example, peptides were synthesized with a C-terminal Peg10 spacer followed by a lysine and conjugated to the glass slide according to Example 4.
In another experiment urothelial cancer cells from voided urine were selectively captured using peptide SEQ ID NO: 5. […]

[8] = WBC:J82 1 to 1, compared with SEQ ID NO: 1 and SEQ ID NO: 4
[9] = WBC:J82 7 to 1, compared with SEQ ID NO: 7
[10] = J82 (100, 500 or 1000 cells) and WBC mixed 1:72, 15 min incubation

## SFCPSNHDCIDWFIRSR [SEQ ID NO: 10, used as positive control in the thyroid test]
[1]
  J82 bladder tumor cells: 53.6
  Enrichment Factor: 588
[2]
  Total Blood Leukocytes: 0.09

## SSLESVKEPWGPGWIPVSR [SEQ ID NO: 3]
[3]; [8]
  capture selectivity (WBC to J82 end ratio): more selective
[4]
  capture selectivity (WBC to SW579 end ratio): more selective
[5]
  selective capture of thyroid cancer cells, slide washed: Blood cells are washed away and thyroid cells retained

## SSFSNYDSPWGPNWSVISR [SEQ ID NO: 1]
[1]
  J82 bladder tumor cells: 48.2
  Enrichment Factor: 463
[2]
  Total Blood Leukocytes: 0.1

## SSVALSFQAVPYDFHSSR [SEQ ID NO: 5]
[3]; [9]
  capture selectivity (WBC to J82 end ratio): more selective
[6]
  Number of captured basal and intermediate cells/peptide coated area: 40 cells/peptide coated area
  Number of captured superficial and squamous cells/peptide coated area: 19 cells/peptide coated area
  peptide selectivity: preferential capture of cell type: deep urothelial cells
[7]
  selective capture of urothelial cancer cells, slide washed: Blood cells are washed away and urothelial cells retained

## SSFGSDCSPWGCEWVPVSR [SEQ ID NO: 4]
[6]
  Number of captured basal and intermediate cells/peptide coated area: 21 cells/peptide coated area
  Number of captured superficial and squamous cells/peptide coated area: 6 cells/peptide coated area
  peptide selectivity: preferential capture of cell type: deep urothelial cells

## SSIEDLPKDWPLFGWMSSR [SEQ ID NO: 2]
[3]; [10]
  depletion of WBCs from the input material: 86%
  reduction in WBCs relative to urothelial cells: 7.6 fold
[3]; [8]
  capture selectivity (WBC to J82 end ratio): more selective
[4]
  capture selectivity (WBC to SW579 end ratio): more selective

## SSVQHAYQAWPGLGAYTSR [SEQ ID NO: 6]
[3]; [9]
  capture selectivity (WBC to J82 end ratio): more selective
[6]
  Number of captured basal and intermediate cells/peptide coated area: 5 cells/peptide coated area
  Number of captured superficial and squamous cells/peptide coated area: 35 cells/peptide coated area
  peptide selectivity: preferential capture of cell type: superficial and squamous cells
